Measurements taken from ChEMBL document CHEMBL1137598, “Synthesis and structure-activity relationship of N-acyl-Gly-, N-acyl-Sar- and N-blocked-boroPro inhibitors of FAP, DPP4, and POP” (Bioorg Med Chem Lett, 2007).

Columns and labels:
Prolyl endopeptidase = molecular target: T1, Prolyl endopeptidase (Homo sapiens, UniProt P48147); assay: Inhibitory constant against POP
T1 sequence (P48147 whole entry): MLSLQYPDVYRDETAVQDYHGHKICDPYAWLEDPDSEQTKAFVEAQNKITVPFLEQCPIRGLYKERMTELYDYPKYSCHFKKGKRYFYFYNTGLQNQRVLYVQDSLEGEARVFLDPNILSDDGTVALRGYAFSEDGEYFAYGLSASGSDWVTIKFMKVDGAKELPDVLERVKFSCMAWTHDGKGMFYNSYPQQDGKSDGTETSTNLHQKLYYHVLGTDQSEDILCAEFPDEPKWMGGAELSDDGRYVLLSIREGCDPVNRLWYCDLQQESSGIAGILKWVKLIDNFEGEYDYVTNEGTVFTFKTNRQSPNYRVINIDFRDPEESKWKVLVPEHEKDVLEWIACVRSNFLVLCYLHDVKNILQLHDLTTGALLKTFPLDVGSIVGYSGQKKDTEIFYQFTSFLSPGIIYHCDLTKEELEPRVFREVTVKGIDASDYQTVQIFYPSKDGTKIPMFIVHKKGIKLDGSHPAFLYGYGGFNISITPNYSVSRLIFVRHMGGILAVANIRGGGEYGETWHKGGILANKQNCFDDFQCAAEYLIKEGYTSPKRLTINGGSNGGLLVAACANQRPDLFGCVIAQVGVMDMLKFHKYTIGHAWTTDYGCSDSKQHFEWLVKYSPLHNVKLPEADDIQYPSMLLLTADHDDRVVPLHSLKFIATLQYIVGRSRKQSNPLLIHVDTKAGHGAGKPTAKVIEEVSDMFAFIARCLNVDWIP

[1] = molecular target: Dipeptidyl peptidase 4 (Homo sapiens) (UniProt P27487); assay: Inhibition of DPP-4 at 500uM
Sequence of Dipeptidyl peptidase 4 (Homo sapiens) (P27487 whole entry, looked up): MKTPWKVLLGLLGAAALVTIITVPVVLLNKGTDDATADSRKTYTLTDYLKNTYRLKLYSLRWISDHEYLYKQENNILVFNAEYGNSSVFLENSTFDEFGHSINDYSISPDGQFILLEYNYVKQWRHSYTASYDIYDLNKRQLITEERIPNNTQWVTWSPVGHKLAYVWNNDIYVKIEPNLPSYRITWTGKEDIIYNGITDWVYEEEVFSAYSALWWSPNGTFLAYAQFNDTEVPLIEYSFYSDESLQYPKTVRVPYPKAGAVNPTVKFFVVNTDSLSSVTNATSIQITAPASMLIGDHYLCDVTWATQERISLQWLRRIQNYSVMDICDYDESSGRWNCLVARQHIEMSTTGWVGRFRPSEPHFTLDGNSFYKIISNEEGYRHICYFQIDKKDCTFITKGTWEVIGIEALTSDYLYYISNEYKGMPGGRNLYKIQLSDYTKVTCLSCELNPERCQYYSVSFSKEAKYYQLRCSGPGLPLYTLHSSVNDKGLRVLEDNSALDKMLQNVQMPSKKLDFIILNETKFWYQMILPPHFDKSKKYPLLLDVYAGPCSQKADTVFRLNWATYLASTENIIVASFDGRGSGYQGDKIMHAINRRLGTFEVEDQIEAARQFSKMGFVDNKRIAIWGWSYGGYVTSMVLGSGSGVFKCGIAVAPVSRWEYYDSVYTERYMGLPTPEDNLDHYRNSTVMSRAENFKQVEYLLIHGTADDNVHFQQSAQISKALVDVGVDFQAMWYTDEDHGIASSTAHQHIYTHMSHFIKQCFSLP

Row | Ki (Prolyl endopeptidase) [nM] | inhibition [1] [%] | SMILES
1 | 13 | – | CC(C)C(=O)N(C)CC(=O)N1CCC[C@H]1B(O)O
2 | 1360 | – | CS(=O)(=O)NCC(=O)N1CCC[C@H]1B(O)O
3 | – | 17 | CC(=O)N[C@H](C)C(=O)N1CCC[C@H]1B(O)O
